From patent US10456407B2, “Combination therapy for treating cancer” (Epizyme, Inc., priority 2015, dated 2019)
“And” between values parts separate entries of the source, which are not always exact repeats. Identical values can stand only once.

Test system: DOHH2 cells
Assay: RT2 Glucocorticoid signaling PCR array, DOHH2 cell line (Table 4b)
Assay type: cell-based
Settings: DOHH2, 4 days

## CCN(c1cc(-c2ccc(CN3CCOCC3)cc2)cc(C(=O)NCc2c(C)cc(C)[nH]c2=O)c1C)C1CCOCC1 [Compound 44]
  ACTB Ct Values: 14.519
  ADARB1 Ct Values: 31.431
  AFF1 Ct Values: 23.888
  AK2 Ct Values: 20.173
  AMPD3 Ct Values: 26.146
  ANGPTL4 Ct Values: 30.820
  ANXA4 Ct Values: 24.273
  ARID68 Ct Values: 23.782
  ASPH Ct Values: 22.823
  ATF4 Ct Values: 19.190
  B2M Ct Values: 18.576
  BCL6 Ct Values: 21.323
  BMPER Ct Values: 39.092
  CALCR Ct Values: 33.360
  CEBPA Ct Values: 30.676
  CEBPB Ct Values: 23.925
  COL4A2 Ct Values: 34.119
  CREB1 Ct Values: 22.746
  CREB3 Ct Values: 24.840
  CREB3L4 Ct Values: 24.110
  CTGF Ct Values: 32.760
  CYB561 Ct Values: 31.945
  DDIT4 Ct Values: 23.508
  DUSP1 Ct Values: 27.132
  EDN1 Ct Values: 32.260
  EHD3 Ct Values: 28.852
  ERRFI1 Ct Values: 30.163
  FK8PS Ct Values: 21.520
  FOSL2 Ct Values: 29.872
  GAPDH Ct Values: 16.197
  GDPD1 Ct Values: 27.570
  GHRHR Ct Values: 39.644
  GLUL Ct Values: 36.671
  GOT1 Ct Values: 23.126
  H6PD Ct Values: 24.377
  HNRPLL Ct Values: 29.151
  HPRT1 Ct Values: 21.561
  IL1RN Ct Values: 32.271
  IL6R Ct Values: 31.962
  KLF9 Ct Values: 28.439
  KLF13 Ct Values: 22.420
  LOX Ct Values: 32.997
  MERTK Ct Values: 32.456
  NFKBIA Ct Values: 22.625
  NR3C1 Ct Values: 22.430
  PDCD7 Ct Values: 23.417
  PDGFRB Ct Values: 35.193
  PDP1 Ct Values: 25.175
  PER1 Ct Values: 24.717
  PER2 Ct Values: 23.835
  PIK3R1 Ct Values: 23.712
  PLEKHF1 Ct Values: 28.946
  POU2F1 Ct Values: 24.003
  POU2F2 Ct Values: 22.167
  RASA3 Ct Values: 27.636
  RGS2 Ct Values: 24.861
  RHOB Ct Values: 30.745
  RPLP0 Ct Values: 14.935
  SESN1 Ct Values: 23.848
  SGK1 Ct Values: 27.821
  SLC10A6 Ct Values: 36.435
  SLC19A2 Ct Values: 24.859
  SLC22A5 Ct Values: 27.992
  SNTA1 Ct Values: 24.550
  SPHK1 Ct Values: 28.863
  SPSB1 Ct Values: 26.652
  STAT5A Ct Values: 23.771
  STAT5B Ct Values: 22.328
  TBL1XR1 Ct Values: 20.994
  TNF Ct Values: 31.849
  TNFAIP3 Ct Values: 27.520
  TSC22D3 Ct Values: 24.752
  USP2 Ct Values: 23.684
  USPS4 Ct Values: 25.892
  VDR Ct Values: 26.426
  VLDLR Ct Values: 27.232
  ZFP36 Ct Values: 23.980
  ZHX3 Ct Values: 24.611
  ZNF281 Ct Values: 23.541
Array control, three lines
  PPC Ct Values: 18.672 and 19.142 and 18.711
  RTC Ct Values: 21.345 and 21.410 and 21.384
Normalized to B2M
  ACTB ΔCT (B2M): −4.057
  ADARB1 ΔCT (B2M): 12.855
  AFF1 ΔCT (B2M): 5.312
  AK2 ΔCT (B2M): 1.597
  AMPD3 ΔCT (B2M): 7.570
  ANGPTL4 ΔCT (B2M): 12.244
  ANXA4 ΔCT (B2M): 5.697
  ASPH ΔCT (B2M): 4.247
  ATF4 ΔCT (B2M): 0.614
  B2M ΔCT (B2M): 0.000
  BCL6 ΔCT (B2M): 2.747
  BMPER ΔCT (B2M): 20.516
  CALCR ΔCT (B2M): 15.054
  CEBPA ΔCT (B2M): 12.100
  CEBPB ΔCT (B2M): 5.349
  COL4A2 ΔCT (B2M): 15.543
  CREB1 ΔCT (B2M): 4.170
  CREB3L4 ΔCT (B2M): 5.534
  CREB3 ΔCT (B2M): 6.264
  CTGF ΔCT (B2M): 14.184
  CYB561 ΔCT (B2M): 13.369
  DDIT4 ΔCT (B2M): 4.932
  DUSP1 ΔCT (B2M): 8.556
  EDN1 ΔCT (B2M): 13.684
  EHD3 ΔCT (B2M): 10.276
  ERRFI1 ΔCT (B2M): 11.587
  FK8PS ΔCT (B2M): 2.944
  FOSL2 ΔCT (B2M): 11.296
  GAPDH ΔCT (B2M): −2.379
  GDPD1 ΔCT (B2M): 8.994
  GHRHR ΔCT (B2M): 21.068
  GLUL ΔCT (B2M): 18.095
  GOT1 ΔCT (B2M): 4.550
  H6PD ΔCT (B2M): 5.801
  HNRPLL ΔCT (B2M): 10.575
  HPRT1 ΔCT (B2M): 2.985
  IL1RN ΔCT (B2M): 13.695
  IL6R ΔCT (B2M): 13.386
  IL6 ΔCT (B2M): 15.874
  KLF9 ΔCT (B2M): 9.863
  KLF13 ΔCT (B2M): 3.844
  LOX ΔCT (B2M): 14.421
  MERTK ΔCT (B2M): 13.880
  NFKBIA ΔCT (B2M): 4.049
  NR3C1 ΔCT (B2M): 3.854
  PDCD7 ΔCT (B2M): 4.841
  PDGFRB ΔCT (B2M): 16.617
  PDP1 ΔCT (B2M): 6.599
  PER1 ΔCT (B2M): 6.141
  PER2 ΔCT (B2M): 5.259
  PIK3R1 ΔCT (B2M): 5.136
  PLEKHF1 ΔCT (B2M): 10.370
  POU2F1 ΔCT (B2M): 5.427
  POU2F2 ΔCT (B2M): 3.591
  RASA3 ΔCT (B2M): 9.060
  RGS2 ΔCT (B2M): 6.285
  RHOB ΔCT (B2M): 12.169
  RPLP0 ΔCT (B2M): −3.641
  SESN1 ΔCT (B2M): 5.272
  SGK1 ΔCT (B2M): 9.245
  SLC10A6 ΔCT (B2M): 17.859
  SLC19A2 ΔCT (B2M): 6.283
  SLC22A5 ΔCT (B2M): 9.416
  SNTA1 ΔCT (B2M): 5.974
  SPHK1 ΔCT (B2M): 10.287
  SPSB1 ΔCT (B2M): 8.076
  STAT5A ΔCT (B2M): 5.195
  STAT5B ΔCT (B2M): 3.752
  TBL1XR1 ΔCT (B2M): 2.415
  TNF ΔCT (B2M): 13.273
  TNFAIP3 ΔCT (B2M): 8.944
  TSC22D3 ΔCT (B2M): 6.176
  USP2 ΔCT (B2M): 5.108
  USPS4 ΔCT (B2M): 7.316
  VDR ΔCT (B2M): 7.850
  VLDLR ΔCT (B2M): 8.656
  ZFP36 ΔCT (B2M): 5.404
  ZHX3 ΔCT (B2M): 6.035
  ZNF281 ΔCT (B2M): 4.965
Normalized to B2M, array control, three lines
  RTC ΔCT (B2M): 2.769 and 2.834 and 2.808
Vs DMSO
  ADARB1 ΔΔCT: 0.046
  AFF1 ΔΔCT: −0.363
  AK2 ΔΔCT: 0.272
  AMPD3 ΔΔCT: 0.178
  ANGPTL4 ΔΔCT: 0.119
  ANXA4 ΔΔCT: −0.111
  ARID68 ΔΔCT: 0.334
  ASPH ΔΔCT: 0.286
  ATF4 ΔΔCT: 0.467
  BCL6 ΔΔCT: 0.227
  BMPER ΔΔCT: 1.488
  CEBPA ΔΔCT: −3.545
  CEBPB ΔΔCT: 0.447
  COL4A2 ΔΔCT: 2.238
  CREB1 ΔΔCT: 0.249
  CREB3L4 ΔΔCT: 0.138
  CREB3 ΔΔCT: 0.344
  CTGF ΔΔCT: −0.518
  CYB561 ΔΔCT: −5.412
  DDIT4 ΔΔCT: 0.007
  DUSP1 ΔΔCT: −0.039
  EDN1 ΔΔCT: 1.460
  EHD3 ΔΔCT: −3.030
  ERRFI1 ΔΔCT: −1.929
  FK8PS ΔΔCT: −3.032
  FOSL2 ΔΔCT: −1.462
  GDPD1 ΔΔCT: 0.471
  GHRHR ΔΔCT: 2.393
  GLUL ΔΔCT: 0.971
  GOT1 ΔΔCT: 0.132
  H6PD ΔΔCT: 0.093
  HNRPLL ΔΔCT: −0.740
  KLF9 ΔΔCT: 0.181
  KLF13 ΔΔCT: −0.098
  LOX ΔΔCT: −0.132
  MERTK ΔΔCT: −0.108
  NFKBIA ΔΔCT: 0.167
  NR3C1 ΔΔCT: 0.261
  PDCD7 ΔΔCT: 0.194
  PDP1 ΔΔCT: −0.255
  PER1 ΔΔCT: 0.206
  PER2 ΔΔCT: −0.374
  PIK3R1 ΔΔCT: −0.032
  PLEKHF1 ΔΔCT: −0.507
  POU2F1 ΔΔCT: 0.058
  POU2F2 ΔΔCT: 0.131
  RASA3 ΔΔCT: 0.917
  RGS2 ΔΔCT: 0.504
  RHOB ΔΔCT: −1.483
  SESN1 ΔΔCT: 0.055
  SGK1 ΔΔCT: 0.621
  SLC19A2 ΔΔCT: −0.308
  SLC22A5 ΔΔCT: 0.033
  SNTA1 ΔΔCT: 0.399
  SPHK1 ΔΔCT: −1.381
  SPSB1 ΔΔCT: 0.025
  STAT5A ΔΔCT: −0.033
  STAT5B ΔΔCT: 0.258
  TBL1XR1 ΔΔCT: 0.030
  TNF ΔΔCT: 0.954
  TNFAIP3 ΔΔCT: −0.307
  TSC22D3 ΔΔCT: 0.009
  USP2 ΔΔCT: 0.013
  USPS4 ΔΔCT: −0.274
  VDR ΔΔCT: −0.547
  VLDLR ΔΔCT: 0.499
  ZFP36 ΔΔCT: 0.243
  ZHX3 ΔΔCT: −0.156
  ZNF281 ΔΔCT: −0.092
